Source: ChEMBL document CHEMBL1132794, “Structure-based design of six novel classes of nonpeptide antagonists of the bradykinin B2 receptor” (Bioorg Med Chem Lett, 2000)

molecular target: T1, B2 bradykinin receptor (Homo sapiens, UniProt P30411); test: Compound was assayed for binding against the human Bradykinin receptor B2 expressed in CHO cells; NA means Inactive; assay type: cell-based; settings: not given
T1 sequence (P30411 whole entry): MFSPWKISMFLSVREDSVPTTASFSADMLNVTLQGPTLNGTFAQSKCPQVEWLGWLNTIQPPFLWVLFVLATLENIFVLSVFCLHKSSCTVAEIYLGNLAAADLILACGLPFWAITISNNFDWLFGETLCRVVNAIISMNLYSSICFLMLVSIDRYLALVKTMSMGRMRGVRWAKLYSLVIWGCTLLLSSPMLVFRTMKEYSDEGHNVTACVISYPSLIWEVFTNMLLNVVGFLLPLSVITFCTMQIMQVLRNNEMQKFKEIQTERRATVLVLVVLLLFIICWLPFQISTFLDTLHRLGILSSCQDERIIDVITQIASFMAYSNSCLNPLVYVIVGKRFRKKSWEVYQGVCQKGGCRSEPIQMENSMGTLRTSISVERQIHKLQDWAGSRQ

Kd | Structure (SMILES)
Not Active | NC[C@H]1C[C@@H](OCc2ccccc2)CN1C(=O)c1ccccc1
Not Active | NCCCC[C@H](C(=O)NCc1ccc(CN)cc1)n1cccc1C(=O)NCCc1ccccc1
Not Active | N=C(N)NC[C@H]1C[C@@H](OCc2ccccc2)CN1C(=O)c1ccccc1

molecular target: T1, B2 bradykinin receptor; test: Compound was assayed for binding against the human Bradykinin receptor B2 expressed in CHO cells; assay type: cell-based; settings: not given

Kd [µM] | Structure (SMILES)
15 | NC(N)=NC[C@H]1C[C@@H](OCc2ccccc2)CN1C(=O)c1ccc2ccccc2c1
28 | NCCCC[C@H](C(=O)NCc1ccc(CN)cc1)n1cccc1C(=O)NC(Cc1ccccc1)c1ccccc1 (stereo partly specified)
17 | NCc1ccc(CNC(=O)[C@@H](CN)n2cccc2CNC(=O)C(c2ccccc2)C2CCCCC2)cc1 (stereo partly specified)
13 | CCCCC1(CCCC)Oc2cccc(NC(=O)c3ccc(CN)cc3)c2O1
7.4 | CCCCc1ccnc([C@H](CC2CCCCC2)NC(=O)c2ccc(CN)cc2)c1
66 | NC[C@H]1C[C@@H](OCc2ccccc2)CN1C(=O)c1ccc2ccccc2c1
7.6 | NCc1cccc(Cn2ccc3c2C(=O)C(Cc2ccccc2)(Cc2ccccc2)CC3)c1

The next lines start with the compound.

Structure (SMILES) | Kd [µM]
CCCCc1ccnc([C@H](CC2CCCCC2)NC(=O)CCCCN)c1 | 62
NCCCN1C(=O)C(CCN)N=C(c2ccccc2)c2cc(N(Cc3ccccc3)Cc3ccccc3)ccc21 (stereo unspecified) | 15
CCCCc1ccnc([C@H](CC2CCCCC2)NC(=O)CCCCN(CCCC)CCCC)c1 | 23
CCCCc1ccnc([C@H](CC2CCCCC2)NC(=O)c2ccc(CNC(=N)N)cc2)c1 | 5
NCCCN1C(=O)C(CN)N=C(c2ccccc2)c2cc(N(Cc3ccccc3)Cc3ccccc3)ccc21 (stereo unspecified) | 4.3
N=C(N)NCCC1N=C(c2ccccc2)c2cc(N(Cc3ccccc3)Cc3ccccc3)ccc2N(CCCN=C(N)N)C1=O (stereo unspecified) | 4.5
CCCCC1(CCCC)Oc2cccc(N(CCCN)C(=O)c3ccc(CN)cc3)c2O1 | 14
N=C(N)NCC1N=C(c2ccccc2)c2cc(N(Cc3ccccc3)Cc3ccccc3)ccc2N(CCCN=C(N)N)C1=O (stereo unspecified) | 12
NCc1ccc(CNC(=O)[C@@H](CN)n2cccc2CNC(=O)CC2CCCCC2)cc1 | 101

molecular target: T1, B2 bradykinin receptor; test: Compound was assayed for binding against the human Bradykinin receptor B2 expressed in CHO cells; 0.2-16; assay type: cell-based; settings: not given

Kd [µM] | Structure (SMILES)
0.2 | N=C(N)NCCC[C@@H]1NC(=O)N2C3CCCCC3C[C@H]2C(=O)N2Cc3ccccc3C[C@@H]2C(=O)NCC[C@@H](NC(=O)CCc2ccccc2)C(=O)CCNC1=O (stereo partly specified)

same assay, conditions: cho

Kd [µM] | Structure (SMILES)
0.2 | NCCCC[C@@H]1NC(=O)[C@H](c2ccccc2)NC(=O)[C@H](CNC(=O)Cc2ccccc2)NC(=O)[C@H]2Cc3ccccc3CN2C(=O)[C@@H]2CC3CCCCC3N2C(=O)[C@H](CN)NC1=O (stereo partly specified)
